{"source": "patent US6642243B1", "about": "“Migraine medicine and method for treating same” (priority 1999, dated 2003)", "origin": "cited, not measured here", "key": {"cerebral blood flow": {"tested_on": "cerebral blood flow", "conditions": "in humans"}, "[1]": {"tested_on": "individuals who take these agents", "conditions": "treatment and prophylaxis of migraines"}, "migraine patients": {"tested_on": "migraine patients", "conditions": "pretreatment with 2 mg/kg; p<0.05"}}, "data": [{"smiles": "Cn1c(=O)c2c(ncn2C)n(C)c1=O", "note": "[Caffeine, caffeine]", "values": [{"measurement": "cerebral blood flow", "setting": "cerebral blood flow", "value": "reduce cerebral blood flow"}]}, {"smiles": "C[C@@H](CO)NC(=O)[C@@H]1C=C2c3cccc4[nH]cc(c34)C[C@H]2N(C)C1", "note": "[ergonovine]", "values": [{"measurement": "significant toxicity, share of the individuals who take these agents", "setting": "[1]", "value": "~40", "unit": "%"}]}, {"smiles": "CC[C@@H](CO)NC(=O)[C@@H]1C=C2c3cccc4c3c(cn4C)C[C@H]2N(C)C1", "note": "[methysergide]", "values": [{"measurement": "significant toxicity, share of the individuals who take these agents", "setting": "[1]", "value": "~40", "unit": "%"}]}, {"smiles": "CN[C@@H](C)[C@@H](O)c1ccccc1", "note": "[Pseudoephedrine, pseudoephedrine]", "values": [{"measurement": "effects of increased postural hypotension seen in migraine patients versus normal patients", "setting": "migraine patients", "value": "abolished"}, {"measurement": "effects of lower blood pressure after sustained handgrip seen in migraine patients versus normal patients", "setting": "migraine patients", "value": "abolished"}]}]}
